Data on 97 molecules can be found in PubChem BioAssay AID2753 (Vanderbilt High Throughput Screening Facility, 2010).

For the assay, the target named is ATP-sensitive inward rectifier potassium channel 1 (Homo sapiens) (UniProt P48048). Description: concentration-response of Kir1.1 channel inhibition – cell-based, thallium flux, HEK293, dose response (AID 2753). As to conditions: HEK293 ROMK thallium flux, fluorescence.

Each structure is given as a SMILES string. Activity calls are given as the source filed them. How the calls were made is not given here.

Chain of ATP-sensitive inward rectifier potassium channel 1 (Homo sapiens) (P48048 whole entry, looked up): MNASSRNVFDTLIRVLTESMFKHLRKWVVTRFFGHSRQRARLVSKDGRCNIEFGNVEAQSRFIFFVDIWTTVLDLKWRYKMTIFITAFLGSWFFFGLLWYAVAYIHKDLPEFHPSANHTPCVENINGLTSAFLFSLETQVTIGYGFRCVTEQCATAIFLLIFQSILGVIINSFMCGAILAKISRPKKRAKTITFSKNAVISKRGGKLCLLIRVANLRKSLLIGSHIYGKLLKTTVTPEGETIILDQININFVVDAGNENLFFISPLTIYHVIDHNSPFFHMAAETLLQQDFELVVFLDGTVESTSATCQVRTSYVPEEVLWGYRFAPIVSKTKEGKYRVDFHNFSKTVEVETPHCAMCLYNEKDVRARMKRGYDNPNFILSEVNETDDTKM

As to `CCOCCCNC(=O)/C(C#N)=C/c1ccc(C(=O)OC)cc1`, the IC50 entry was “inactive”.
Next, `COC(=O)/C=C1\SC(=NC(=O)c2cccc(Cl)c2)NC1=O`: “inactive”; `COC(=O)Cn1cc(/C=C/[N+](=O)[O-])c2ccccc21`: 63 µM; `CC(C)(C)c1ccc(N2C(=N)SCC2=O)cc1`: 3.24 µM.
Next, `O=C1c2cccc3c([N+](=O)[O-])ccc(c23)C(=O)N1CC1CCCO1` (configuration not stated): “inactive”.
With `CC1=NOC(=O)/C1=C\c1ccc(-c2ccccc2Br)o1`, the IC50 entry was “inactive”.
Next, `Cn1nc(C(F)(F)F)c(C#N)c1N1CCN(c2ccccc2)CC1`: 15.2 µM; `O=C1C=CC(=O)C(C2=C3C(=O)N(CCc4ccccc4)CC(=O)N3CCC2)=C1`: 13 µM.
Next, `O=C1N=C2SCCN2/C1=C\c1ccc(Cl)cc1`: 4.79 µM; `Cc1cccc(C2c3[nH]c4ccccc4c3CCN2C(=O)c2nn(C)c(=O)c3ccccc23)n1` (configuration not stated): “inactive”.
Next, `CCC(CC)C(=O)Nc1c2cnn(-c3ccccc3)c2nc(=O)n1-c1ccccc1`: 14 µM; `O=[N+]([O-])c1ccc(S(=O)(=O)N2CCN(Cc3c[nH]c4ccccc34)CC2)cc1`: “inactive”; `Cn1c(=O)c([N+](=O)[O-])c(Cl)c2ccccc21`: 5.56 µM.
On to `O=C(CCl)N(c1ccccc1)c1ccccc1`, for which the IC50 entry was “inactive”.
Next, `CNC(=O)c1nnsc1S(=O)c1ccc(Cl)cc1` (configuration not stated): 0.647 µM; `CN(C)c1cc(O)c(C(=S)Nc2ccccc2)c(N(C)C)c1`: 75.5 µM; `CNC(=O)c1nnsc1S(=O)(=O)c1ccc(Cl)cc1`: 7.46 µM.
Next, `CS(=O)(=O)n1nc(OC(=O)c2cc(Br)ccc2Cl)cc1N`: “inactive”; `O=C(c1nnsc1S(=O)c1ccc(Cl)cc1)N1CCOCC1` (configuration not stated): 2.2 µM; `CSc1ccc(/C=C(\C#N)C(=O)NC2CCCCC2C)cc1` (configuration not stated): 3.24 µM.
In the case of `CC(=O)c1c(C)nc(-c2cccc([N+](=O)[O-])c2)n1O`, the IC50 entry is “inactive”.
Next, `COC(=O)/C=C1/SC(=NC(=O)c2ccc(F)cc2)NC1=O`: 19.1 µM; `COC(=O)N/N=C/c1ccc(-c2cc(Cl)ccc2Cl)o1`: 5.79 µM.
`CCCCC1(CCCC)C(=O)NC(=Nc2cccc(C)c2)NC1=O`: the IC50 is 3.01 µM.
Next, `C[n+]1c2n(c3ccccc31)N=C(c1cc(C(C)(C)C)c(O)c(C(C)(C)C)c1)CS2`: 73.3 µM; `COc1ccccc1-n1c(SCC(=O)N2CCc3ccccc32)nc2c(c1=O)SCC2`: 6.43 µM; `C=CCNC(=O)/C(C#N)=C\c1cc(Cl)c(OCC)c(OC)c1`: 86.8 µM.
Next, `Cc1cc(C)c(C)c(S(=O)(=O)NC2CCN(Cc3ccccc3)CC2)c1C`: 17 µM.
As to `N#Cc1nc(-c2cccs2)oc1NCc1ccccc1`, the IC50 was 7.04 µM.
Take `COc1cccc(/C=C2\SC(=S)N(N3C(=O)CCCC3=O)C2=O)c1`: the IC50 result was “inactive”.
Next, `O=C(CCl)N(Cc1cccc([N+](=O)[O-])c1)c1cccc(Cl)c1`: 9.65 µM.
Next, `Cc1ccc(-n2c3nc(=O)[nH]c(=O)c-3cc3cc([N+](=O)[O-])ccc32)cc1`: 8.66 µM.
Next, `CCCNc1nc(Cl)nc(NC(C)(C)C)n1`: 2.78 µM.
Consider `Cc1cc(N2CCOCC2)ccc1/C=C\[N+](=O)[O-]`, for which the IC50 is 3.4 µM.
Next, `O=C(c1ccc([N+](=O)[O-])cc1)N(Cc1ccc(Br)cc1)N1C(=O)CCCC1=O`: 0.32 µM.
Next, `CC(=O)c1ccc(N/N=C(/C(N)=O)C2=NC(C)(C)Cc3ccccc32)cc1`: 26.9 µM; `CCCNC(=O)c1nnsc1S(=O)c1ccc(Cl)cc1` (configuration not stated): 2.8 µM.
For `Cc1cc(C)n2nc(/C(C#N)=C/c3ccccn3)c(C#N)c2n1`, the IC50 is 88.3 µM.
`COc1cc2c(cc1OC)C(/C=C/c1ccco1)=NCC2`: the IC50 was 4.07 µM.
For `COCc1cc(C)nc(SCC[N+](C)(C)CC(=O)Nc2cccc(C(F)(F)F)c2)c1C#N`, the concentration for half-maximal inhibition (IC50) was 9.27 µM.
Next, `Cc1cc(=O)oc2cc(NC(=S)NCc3ccccn3)ccc12`: 7.2 µM; `Cc1c(N2C(=O)/C(=C\C3CC=CCC3)SC2=S)c(=O)n(-c2ccccc2)n1C` (configuration not stated): 2.66 µM; `O=[N+]([O-])c1ccc(N2CCCNCC2)c2ncccc12`: 10.7 µM.
Next, `O=C(O)c1cccc(CN2C(=O)S/C(=C/c3cccc([N+](=O)[O-])c3)C2=O)c1`: 5.71 µM; `N#C/C(=C\c1ccncc1)c1nc2ccccc2[nH]1`: “inactive”.
Take `CC(=O)/C(=C/c1ccccc1)C(=O)Nc1ccccc1C`: the IC50 is 23 µM.
Next, `CC1CCCCC1NC(=O)/C(C#N)=C/c1ccccc1F` (configuration not stated): 4.75 µM.
Next, `N#CC1=C(N)N(c2ccccc2)C(c2cccc([N+](=O)[O-])c2)C1(C#N)C#N` (configuration not stated): 11.5 µM; `CCOC(=O)c1c(C)n(C)c2ccc(OC)c(NC(=O)CN3CCCCC3)c12`: 7.88 µM.
Next, `N#C/C(=C\c1cccc([N+](=O)[O-])c1)c1nnc2n1CCCCC2`: “inactive”; `N#C/C(=C\c1ccc(Cl)c([N+](=O)[O-])c1)c1ccccn1`: 3.6 µM; `CCCC(C(=O)NCc1ccco1)N(C(=O)CNS(=O)(=O)c1ccccc1)c1ccccc1OC` (configuration not stated): “inactive”.
Regarding `COc1cc(NC(=O)C2CCN(S(=O)(=O)c3ccc(Cl)cc3)CC2)ccc1-n1cnnn1`, the IC50 was 2.1 µM.
Next, `Cc1ccc(N2C(=O)NC(=O)/C(=C\C=C\c3ccco3)C2=O)cc1C`: 2.33 µM.
Next, `O=C(Cn1nc(CNc2ccc(Cl)cc2)[n+]2c1CCCCC2)c1ccc(Cl)cc1`: 5.52 µM; `CSC1=C(C#N)C(=O)NC(c2ccccc2O)S1` (configuration not stated): 7.63 µM.
Next, `Cc1cnc2ncc3sccc3c2c1`: 13.5 µM; `N#C/C(=C/c1cc(Br)cs1)C(=O)NCC1CCCO1` (configuration not stated): “inactive”.
Regarding `CN(C)c1nc(C=C(C#N)C#N)c(Cl)n1-c1ccc(F)cc1`, the IC50 is 2.98 µM.
Next, `N#C/C(=C\c1cccc([N+](=O)[O-])c1)C(=O)NCC1CCCO1` (configuration not stated): “inactive”.
Next, `COc1cc(/C=C(\C#N)C(N)=O)ccc1OS(=O)(=O)c1ccc(C)cc1`: 31 µM; `O=C(/C(=C/c1ccc(Cl)cc1)c1nc2ccccc2[nH]1)c1cccs1`: 4.56 µM.
Next, `Cc1ccc2nc(NC(=O)C(NS(=O)(=O)c3cccc4nsnc34)C(C)C)sc2c1` (configuration not stated): “inactive”; `Cc1c(Nc2cc(Cl)c3nonc3c2[N+](=O)[O-])c(=O)n(-c2ccccc2)n1C`: 52.8 µM; `COc1cc(/C=C2\C(=N)N3N=CSC3=NC2=O)cc(Br)c1OC(=O)c1ccco1`: 4.53 µM.
On to `CCOC(=O)c1ccc(-n2c(O)c(/C=N/NC(=O)C3COc4ccccc4O3)c3ccccc3c2=O)cc1` (configuration not stated), for which the IC50 entry is “inactive”.
Next, `CS(=O)(=O)N1CCc2cc(-c3csc(NC(=O)Cc4cccs4)n3)ccc21`: “inactive”; `N#Cc1cccc(N=c2ssnc2Cl)c1`: 8.39 µM.
Next, `O=C1CC(N2CCN(Cc3ccc4c(c3)OCO4)CC2)C(=O)N1c1cccc2ccccc12` (configuration not stated): “inactive”.
Next, `O=C(N/N=C/c1cn(-c2cccs2)nc1-c1ccccc1)c1ccc(O)cc1`: 4.99 µM; `COc1cc(/C=C(/C(=O)c2cccs2)c2nc3ccccc3[nH]2)ccc1O`: “inactive”.
As for `COC(=O)[C@@]1(Cc2ccccc2)[C@@H]2C(=CC(=O)[C@H]2CC(=O)C(=O)N(C)C)CN1C(=O)c1ccccc1`, the IC50 was 81 µM.
Consider `COc1ccc(C2(O)CCN(CCCCOc3ccccc3)CC2)cc1`, for which the IC50 is 10.8 µM.
Next, `CN(CCCC(=O)Nc1ccncc1)S(=O)(=O)c1ccc(Cl)cc1`: “inactive”.
In the case of `COc1ccc(NC(=O)/C(Cl)=C(/Cl)S(=O)Cc2ccccc2)cn1` (configuration not stated), the IC50 was 1.21 µM.
Next, `COc1ccc(CNCC(O)COc2ccc(C)cc2[N+](=O)[O-])cc1` (configuration not stated): “inactive”; `Cc1ccc2[nH]cc(C(=O)CCl)c2c1`: 4.14 µM.
For the molecule `Cc1ccc(C)n1-c1ccc(-n2cnnn2)cc1`, the IC50 is 10.4 µM.
Next, `CCOc1ccccc1N(CC(=O)N1CCOCC1)S(=O)(=O)c1ccc(SC)cc1`: 1.4 µM; `COc1ccccc1/C=C(\C#N)C(=O)Nc1ccc(S(N)(=O)=O)cc1`: “inactive”; `CCN1C(=O)c2cccc3c(S(=O)(=O)Nc4ccccc4OC)ccc1c23`: “inactive”.
Next, `CC(/C=C1\SC(=S)N(CCCC(=O)Nc2ccc(C(=O)O)cc2)C1=O)=C\c1ccccc1`: 120 µM.
Regarding `O=C1CCCCCN1Sc1ccccc1`, the IC50 is 4.49 µM.
Next, `COc1cc(NC(C)=O)c2ncccc2c1[N+](=O)[O-]`: 21.1 µM; `CCCNC(=O)c1nnsc1S(=O)(=O)c1ccc(Cl)cc1`: 9.69 µM; `CN(C)CCNC(=O)/C(=C/c1ccc(-c2ccc(Cl)cc2)o1)NC(=O)c1ccccc1`: “inactive”.
`CC(CCc1ccccc1)NC(=O)CN1CCN(c2ccccc2)CC1` (configuration not stated): the IC50 result is “inactive”.
For the molecule `Cc1ccc(C(C)C)c(OCC(=O)NN=C(CCl)CCl)c1`, the IC50 result was “inactive”.
For the molecule `O=C(O)c1ccc(Cn2cnc3scc(-c4ccccc4)c3c2=O)cc1`, the IC50 is 9.85 µM.
Next, `COC(=O)C1=C(C)N(C)C(C)=C(C(=O)OC)C1c1ccccc1C`: 39.9 µM; `COCCNC(=O)/C(C#N)=C/c1c(F)cccc1Cl`: 9.2 µM; `Cc1nn(CCCC(=O)N2CCN(c3ccc(F)cc3)CC2)c(C)c1[N+](=O)[O-]`: “inactive”.
Next, `O=C(/C=C/c1cn(CC(O)CN2CCCCC2)c2ccccc12)c1ccccc1` (configuration not stated): “inactive”; `Cc1nn(-c2ccccc2)c(Cl)c1/C=C(\C#N)C(=O)NC(C)C`: 45.5 µM; `CCOc1cc(C)c(Cl)cc1S(=O)(=O)NC1CC(C)(C)NC(C)(C)C1`: 82.8 µM.
Next, `Cc1cc(Cl)c(S(=O)(=O)Nc2ccc3c(c2)OCCO3)cc1OCC(=O)NC1CCCCC1`: 3.55 µM; `COC(=O)c1cc([N+](=O)[O-])c(-n2cncn2)c([N+](=O)[O-])c1`: 5.07 µM.

A word on the IC50: it is the midpoint of a concentration-inhibition curve.
